Source: patent publication US8192962B2, “Processes for detecting toxic substances” (Daikin Industries, Ltd., priority 2001, dated 2012)

System: Metabolism protein genes
Assay: DNA chip mRNA expression in yeast, metabolism protein genes (Table 7)
Assay type: cell-based, Saccharomyces cerevisiae S288C
In short: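 In this screen, yeast in logarithmic growth are challenged for two hours with a toxic substance at a non-lethal inhibitory concentration. Their mRNA, converted to Cy3- or Cy5-labeled cDNA, hybridizes at 65° C. to a chip spanning every yeast gene, and expression is expressed as a ratio to untreated cells.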

C=CC=O [(14), acrolein]
level of expressed mRNA in the presence/in the absence of chemical substance (yeast gene YKL060C): 0.8 | The level of expressed mRNA in the presence of chemical substance/The level of expressed mRNA in the absence of chemical substance (yeast gene YKL091C): 1.5 | The level of expressed mRNA in the presence of chemical substance/The level of expressed mRNA in the absence of chemical substance (yeast gene YKL104C): 0.8 | level of expressed mRNA in the presence/in the absence of chemical substance (yeast gene YKL148C): 0.8 | The level of expressed mRNA in the presence of chemical substance/The level of expressed mRNA in the absence of chemical substance (yeast gene YKL152C): 1.0 | level of expressed mRNA in the presence/in the absence of chemical substance (yeast gene YKL157W): 0.8 | The level of expressed mRNA in the presence of chemical substance/The level of expressed mRNA in the absence of chemical substance (yeast gene YKL213C): 0.9 | The level of expressed mRNA in the presence of chemical substance/The level of expressed mRNA in the absence of chemical substance (yeast gene YKL215C): 1.0 | level of expressed mRNA in the presence/in the absence of chemical substance (yeast gene YKR034W): 1.1 | The level of expressed mRNA in the presence of chemical substance/The level of expressed mRNA in the absence of chemical substance (yeast gene YKR039W): 1.2 | The level of expressed mRNA in the presence of chemical substance/The level of expressed mRNA in the absence of chemical substance (yeast gene YLL058W): 0.8 | level of expressed mRNA in the presence/in the absence of chemical substance (yeast gene YLR006C): 1.0 | level of expressed mRNA in the presence/in the absence of chemical substance (yeast gene YLR044C): 0.5 | level of expressed mRNA in the presence/in the absence of chemical substance (yeast gene YLR056W): 0.7 | level of expressed mRNA in the presence/in the absence of chemical substance (yeast gene YLR058C): 0.7 | level of expressed mRNA in the presence/in the absence of chemical substance (yeast gene YLR081W): 1.0 | level of expressed mRNA in the presence/in the absence of chemical substance (yeast gene YLR089C): 0.7 | The level of expressed mRNA in the presence of chemical substance/The level of expressed mRNA in the absence of chemical substance (yeast gene YLR180W): 0.6 | The level of expressed mRNA in the presence of chemical substance/The level of expressed mRNA in the absence of chemical substance (yeast gene YLR273C): 1.3 | level of expressed mRNA in the presence/in the absence of chemical substance (yeast gene YLR284C): 1.3 | The level of expressed mRNA in the presence of chemical substance/The level of expressed mRNA in the absence of chemical substance (yeast gene YLR299W): 1.3 | The level of expressed mRNA in the presence of chemical substance/The level of expressed mRNA in the absence of chemical substance (yeast gene YLR300W): 0.6 | The level of expressed mRNA in the presence of chemical substance/The level of expressed mRNA in the absence of chemical substance (yeast gene YLR303W): 3.8 | level of expressed mRNA in the presence/in the absence of chemical substance (yeast gene YLR304C): 0.7 | The level of expressed mRNA in the presence of chemical substance/The level of expressed mRNA in the absence of chemical substance (yeast gene YLR307W): 1.9 | The level of expressed mRNA in the presence of chemical substance/The level of expressed mRNA in the absence of chemical substance (yeast gene YLR348C): 1.0 | level of expressed mRNA in the presence/in the absence of chemical substance (yeast gene YLR354C): 0.9 | level of expressed mRNA in the presence/in the absence of chemical substance (yeast gene YLR372W): 0.6 | level of expressed mRNA in the presence/in the absence of chemical substance (yeast gene YML022W): 0.9 | The level of expressed mRNA in the presence of chemical substance/The level of expressed mRNA in the absence of chemical substance (yeast gene YML054C): 2.1 | The level of expressed mRNA in the presence of chemical substance/The level of expressed mRNA in the absence of chemical substance (yeast gene YML070W): 1.3 | The level of expressed mRNA in the presence of chemical substance/The level of expressed mRNA in the absence of chemical substance (yeast gene YML100W): 1.2 | The level of expressed mRNA in the presence of chemical substance/The level of expressed mRNA in the absence of chemical substance (yeast gene YMR008C): 0.7 | level of expressed mRNA in the presence/in the absence of chemical substance (yeast gene YMR011W): 0.6 | level of expressed mRNA in the presence/in the absence of chemical substance (yeast gene YMR015C): 0.8 | The level of expressed mRNA in the presence of chemical substance/The level of expressed mRNA in the absence of chemical substance (yeast gene YMR020W): 1.1 | The level of expressed mRNA in the presence of chemical substance/The level of expressed mRNA in the absence of chemical substance (yeast gene YMR081C): 1.8 | level of expressed mRNA in the presence/in the absence of chemical substance (yeast gene YMR083W): 0.8 | The level of expressed mRNA in the presence of chemical substance/The level of expressed mRNA in the absence of chemical substance (yeast gene YMR105C): 1.0 | The level of expressed mRNA in the presence of chemical substance/The level of expressed mRNA in the absence of chemical substance (yeast gene YMR189W): 1.6 | level of expressed mRNA in the presence/in the absence of chemical substance (yeast gene YMR205C): 0.5 | level of expressed mRNA in the presence/in the absence of chemical substance (yeast gene YMR261C): 0.6 | The level of expressed mRNA in the presence of chemical substance/The level of expressed mRNA in the absence of chemical substance (yeast gene YMR271C): 1.8 | The level of expressed mRNA in the presence of chemical substance/The level of expressed mRNA in the absence of chemical substance (yeast gene YMR296C): 0.7 | level of expressed mRNA in the presence/in the absence of chemical substance (yeast gene YMR323W): 1.2 | The level of expressed mRNA in the presence of chemical substance/The level of expressed mRNA in the absence of chemical substance (yeast gene YNL012W): 1.0 | level of expressed mRNA in the presence/in the absence of chemical substance (yeast gene YNL025C): 1.2 | The level of expressed mRNA in the presence of chemical substance/The level of expressed mRNA in the absence of chemical substance (yeast gene YNL037C): 1.3 | The level of expressed mRNA in the presence of chemical substance/The level of expressed mRNA in the absence of chemical substance (yeast gene YNL045W): 0.8 | The level of expressed mRNA in the presence of chemical substance/The level of expressed mRNA in the absence of chemical substance (yeast gene YNL104C): 0.9 | The level of expressed mRNA in the presence of chemical substance/The level of expressed mRNA in the absence of chemical substance (yeast gene YNL106C): 1.1 | The level of expressed mRNA in the presence of chemical substance/The level of expressed mRNA in the absence of chemical substance (yeast gene YNL169C): 0.9 | level of expressed mRNA in the presence/in the absence of chemical substance (yeast gene YNL192W): 0.7 | The level of expressed mRNA in the presence of chemical substance/The level of expressed mRNA in the absence of chemical substance (yeast gene YNL231C): 0.9 | The level of expressed mRNA in the presence of chemical substance/The level of expressed mRNA in the absence of chemical substance (yeast gene YNL322C): 1.2 | The level of expressed mRNA in the presence of chemical substance/The level of expressed mRNA in the absence of chemical substance (yeast gene YNL331C): 7.5 | The level of expressed mRNA in the presence of chemical substance/The level of expressed mRNA in the absence of chemical substance (yeast gene YNL332W): 3.0 | The level of expressed mRNA in the presence of chemical substance/The level of expressed mRNA in the absence of chemical substance (yeast gene YNR002C): 1.2 | The level of expressed mRNA in the presence of chemical substance/The level of expressed mRNA in the absence of chemical substance (yeast gene YNR019W): 1.0 | The level of expressed mRNA in the presence of chemical substance/The level of expressed mRNA in the absence of chemical substance (yeast gene YNR033W): 0.9 | The level of expressed mRNA in the presence of chemical substance/The level of expressed mRNA in the absence of chemical substance (yeast gene YNR059W): 1.0 | The level of expressed mRNA in the presence of chemical substance/The level of expressed mRNA in the absence of chemical substance (yeast gene YOL058W): 1.5 | level of expressed mRNA in the presence/in the absence of chemical substance (yeast gene YOL086C): 0.6 | level of expressed mRNA in the presence/in the absence of chemical substance (yeast gene YOL108C): 0.9 | level of expressed mRNA in the presence/in the absence of chemical substance (yeast gene YOL116W): 0.9 | The level of expressed mRNA in the presence of chemical substance/The level of expressed mRNA in the absence of chemical substance (yeast gene YOL126C): 1.2 | The level of expressed mRNA in the presence of chemical substance/The level of expressed mRNA in the absence of chemical substance (yeast gene YOL151W): 4.0 | The level of expressed mRNA in the presence of chemical substance/The level of expressed mRNA in the absence of chemical substance (yeast gene YOL153C): 1.5 | level of expressed mRNA in the presence/in the absence of chemical substance (yeast gene YOL156W): 0.9 | The level of expressed mRNA in the presence of chemical substance/The level of expressed mRNA in the absence of chemical substance (yeast gene YOL165C): 9.1 | level of expressed mRNA in the presence/in the absence of chemical substance (yeast gene YOR002W): 0.9 | level of expressed mRNA in the presence/in the absence of chemical substance (yeast gene YOR085W): 0.7 | The level of expressed mRNA in the presence of chemical substance/The level of expressed mRNA in the absence of chemical substance (yeast gene YOR099W): 0.7 | level of expressed mRNA in the presence/in the absence of chemical substance (yeast gene YOR103C): 1.2 | level of expressed mRNA in the presence/in the absence of chemical substance (yeast gene YOR108W): 0.9 | level of expressed mRNA in the presence/in the absence of chemical substance (yeast gene YOR128C): 0.7 | The level of expressed mRNA in the presence of chemical substance/The level of expressed mRNA in the absence of chemical substance (yeast gene YOR130C): 1.3 | level of expressed mRNA in the presence/in the absence of chemical substance (yeast gene YOR142W): 0.8 | level of expressed mRNA in the presence/in the absence of chemical substance (yeast gene YOR176W): 0.8 | level of expressed mRNA in the presence/in the absence of chemical substance (yeast gene YOR178C): 1.0 | level of expressed mRNA in the presence/in the absence of chemical substance (yeast gene YOR251C): 1.1 | The level of expressed mRNA in the presence of chemical substance/The level of expressed mRNA in the absence of chemical substance (yeast gene YOR336W): 1.1 | The level of expressed mRNA in the presence of chemical substance/The level of expressed mRNA in the absence of chemical substance (yeast gene YOR347C): 0.9 | level of expressed mRNA in the presence/in the absence of chemical substance (yeast gene YOR348C): 1.2 | The level of expressed mRNA in the presence of chemical substance/The level of expressed mRNA in the absence of chemical substance (yeast gene YPL017C): 1.6 | level of expressed mRNA in the presence/in the absence of chemical substance (yeast gene YPL028W): 0.8 | level of expressed mRNA in the presence/in the absence of chemical substance (yeast gene YPL057C): 0.7 | level of expressed mRNA in the presence/in the absence of chemical substance (yeast gene YPL135W): 1.1 | level of expressed mRNA in the presence/in the absence of chemical substance (yeast gene YPL148C): 1.6 | The level of expressed mRNA in the presence of chemical substance/The level of expressed mRNA in the absence of chemical substance (yeast gene YPR026W): 1.5 | level of expressed mRNA in the presence/in the absence of chemical substance (yeast gene YPR113W): 1.3 | level of expressed mRNA in the presence/in the absence of chemical substance (yeast gene YPR165W): 1.0 | The level of expressed mRNA in the presence of chemical substance/The level of expressed mRNA in the absence of chemical substance (yeast gene YPR167C): 4.2 | level of expressed mRNA in the presence/in the absence of chemical substance (yeast gene YPR183W): 0.7
